According to US9290485B2, “N-((6-amino-pyridin-3-yl)methyl)-heteroaryl-carboxamides” (NOVARTIS AG, priority 2010, dated 2016):

Target: human plasma kallikrein (Homo sapiens (Human), UniProt P03952)
Conditions: human plasma kallikrein 25 pM, substrate 0.5 uM, 1 hour pre-incubation at room temperature, read at t=60 min
Description: All other chemicals were of analytical grade.
A stock solution of 0.17 mg/ml deinonized water was stored at −80° C. Enzymatic reactions were conducted in ‘assay buffer’, comprising 50 mM Hepes/NaOH at pH 7.8, 150 mM NaCl, 1 mM EDTA and 0.05% (w/v) CHAPS.
Both, enzyme and substrate were diluted in assay buffer.
All protein and peptide containing solutions were handled in siliconized tubes (Life Systems Design, Merenschwand, Switzerland). […] Plate measurements were conducted by the means of a Safire2 reader (TECAN, Maennedorf, Switzerland). The Safire2 is a monochomator-based instrument and wavelengths of 485 nm and 535 nm were taken for fluorescence excitation and emission acquisition, respectively. The bandwidths were set to 10 nm in both the excitation and the emission path. The fluorescence in each well was excited by three flashes per measurement.
The test compound was dissolved in 90% (v/v) DMSO/water. For the assays, 250 nL of the 90% (v/v) DMSO/water solution or compound solution were added per well, followed by the addition of 12.5 μl protease solution (protease in assay buffer). […] After 1 hour of pre-incubation at room temperature, the reactions were started by the addition of 12.5 μl substrate solution (in assay buffer, final assay concentration was 0.5 uM). After the addition of the substrate solution, the final DMSO concentration in the assay was 0.9% (v/v). […] The IC50 value was calculated from the plot of percentage of inhibition vs. inhibitor concentration by a logistics fit according to the following equation: y=A2+(A1−A2)/(1+(x/IC50)^p) where y is the %-inhibition at the inhibitor concentration, x. A1 is the lowest inhibition value, i.e. 0%, and A2 the maximum inhibition value, i.e. 100%. The exponent, p, is the Hill coefficient. The curve fitting was conducted with the non-linear regression routine of the analysis software Origin 7.55R6 (OriginLab Corporation).

Chain of human plasma kallikrein (P03952 whole entry, looked up): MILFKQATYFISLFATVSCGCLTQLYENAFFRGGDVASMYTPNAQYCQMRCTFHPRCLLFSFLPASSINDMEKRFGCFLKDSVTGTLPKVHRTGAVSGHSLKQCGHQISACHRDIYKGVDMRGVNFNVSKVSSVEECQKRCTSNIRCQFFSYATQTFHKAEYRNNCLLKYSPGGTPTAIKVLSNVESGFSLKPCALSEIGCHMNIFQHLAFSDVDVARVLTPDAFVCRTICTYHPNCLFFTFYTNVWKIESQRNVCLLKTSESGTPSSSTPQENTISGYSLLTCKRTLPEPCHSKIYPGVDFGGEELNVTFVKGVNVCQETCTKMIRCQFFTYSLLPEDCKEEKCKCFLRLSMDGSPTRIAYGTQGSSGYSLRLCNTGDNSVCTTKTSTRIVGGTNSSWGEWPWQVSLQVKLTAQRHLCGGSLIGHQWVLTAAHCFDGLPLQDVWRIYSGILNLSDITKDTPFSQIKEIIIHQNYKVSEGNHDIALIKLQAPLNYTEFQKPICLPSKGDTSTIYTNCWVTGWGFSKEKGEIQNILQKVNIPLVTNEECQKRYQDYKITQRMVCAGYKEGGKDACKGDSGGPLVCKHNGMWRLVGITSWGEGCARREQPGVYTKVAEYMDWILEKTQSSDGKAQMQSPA
Chain of human plasma kallikrein (P03952 whole entry partner, looked up): as the sequence (P03952 whole entry, looked up) above

**Q.** Which IC50 does the source give for Cc1cc(N)nc(C)c1CNC(=O)c1cc(Cc2ccccc2)no1 [Example 3, N-((6-amino-2,4-dimethylpyridin-3-yl)methyl)-3-benzylisoxazole-5-carboxamide] here?
**A.** 2260 nM

**Q.** With Cc1cc(N)nc(C)c1CNC(=O)c1nnc(Cc2ccccc2)o1 [Example 4, N-((6-amino-2,4-dimethylpyridin-3-yl)methyl)-5-benzyl-1,3,4-oxadiazole-2-carboxamide] as the compound, how does the IC50 read?
**A.** 7600 nM

**Q.** With Cc1cc(N)nc(C)c1CNC(=O)c1nc(Cc2ccccc2)no1 [Example 5, N-((6-amino-2,4-dimethylpyridin-3-yl)methyl)-3-benzyl-1,2,4-oxadiazole-5-carboxamide] as the compound, how does the IC50 read?
**A.** 4500 nM

**Q.** With Cc1cc(N)nc(C)c1CNC(=O)c1cn(Cc2ccc(Cn3cccn3)cc2)cn1 [Example 6, 1-(4-((1H-pyrazol-1-yl)methyl)benzyl)-N-((6-amino-2,4-dimethylpyridin-3-yl)methyl)-1H-imidazole-4-carboxamide] as the compound, how does the IC50 read?
**A.** 0.2 nM

**Q.** With Cc1cc(N)nc(C)c1CNC(=O)c1ncc(Cc2ccccc2)o1 [Example 7, N-((6-amino-2,4-dimethylpyridin-3-yl)methyl)-5-benzyloxazole-2-carboxamide] as the compound, how does the IC50 read?
**A.** 2030 nM

**Q.** How did the IC50 turn out when COc1ccc(Cc2nc(C(=O)NCc3c(C)cc(N)nc3C)co2)cc1 [Example 8, N-((6-amino-2,4-dimethylpyridin-3-yl)methyl)-2-(4-methoxybenzyl)oxazole-4-carboxamide] was run?
**A.** 2640 nM

**Q.** With Cc1cc(N)nc(C)c1CNC(=O)c1cnn(C(CO)c2ccccc2)c1 (stereo not drawn) [Example 11, N-((6-amino-2,4-dimethylpyridin-3-yl)methyl)-1-(2-hydroxy-1-phenylethyl)-1H-pyrazole-4-carboxamide] as the compound, how does the IC50 read?
**A.** 12200 nM

**Q.** For COc1ccc(S(=O)(=O)n2ccc(C(=O)NCc3c(C)cc(N)nc3C)c2)cc1 [Example 12, 1-(4-Methoxy-benzenesulfonyl)-1H-pyrrole-3-carboxylic acid (6-amino-2,4-dimethyl-pyridin-3-ylmethyl)-amide], which IC50 is on record?
**A.** 1370 nM

**Q.** With COc1cc(N)nc(C)c1CNC(=O)c1cnn(Cc2ccccc2)c1 [Example 14, N-((6-amino-4-methoxy-2-methylpyridin-3-yl)methyl)-1-benzyl-1H-pyrazole-4-carboxamide] as the compound, how does the IC50 read?
**A.** 320 nM

**Q.** Which IC50 does the source give for Cc1nc(N)cc(OC2CCCCC2)c1CNC(=O)c1cnn(Cc2ccccc2)c1 [Example 15, N-((6-amino-4-(cyclohexyloxy)-2-methylpyridin-3-yl)methyl)-1-benzyl-1H-pyrazole-4-carboxamide] here?
**A.** 230 nM

**Q.** How did the IC50 turn out when Cc1cc(N)nc(C)c1CNC(=O)c1cnn(Cc2ccc(CN3C(=O)CCC3=O)cc2)c1 [Example 17, N-((6-amino-2,4-dimethylpyridin-3-yl)methyl)-1-(4-((2,5-dioxopyrrolidin-1-yl)methyl)benzyl)-1H-pyrazole-4-carboxamide] was run?
**A.** 98 nM

**Q.** Which IC50 does the source give for Cc1cc(N)nc(C)c1CNC(=O)c1cnn(Cc2ccncc2)c1 [Example 18, N-((6-amino-2,4-dimethylpyridin-3-yl)methyl)-1-(pyridin-4-ylmethyl)-1H-pyrazole-4-carboxamide] here?
**A.** 1100 nM

**Q.** For Cc1cc(N)nc(C)c1CNC(=O)c1cn(Cc2ccccc2)nn1 [Example 21, N-((6-amino-2,4-dimethylpyridin-3-yl)methyl)-1-benzyl-1H-1,2,3-triazole-4-carboxamide], which IC50 is on record?
**A.** 2540 nM

**Q.** With Cc1cc(N)nc(C)c1CNC(=O)c1cn(Cc2ccccc2)cn1 [Example 22, N-((6-amino-2,4-dimethylpyridin-3-yl)methyl)-1-benzyl-1H-imidazole-4-carboxamide] as the compound, how does the IC50 read?
**A.** 1700 nM

**Q.** Which IC50 does the source give for Cc1cc(N)nc(C)c1CNC(=O)c1cn(Cc2ccc(Oc3ccccc3)cc2)cn1 [Example 23, N-((6-amino-2,4-dimethylpyridin-3-yl)methyl)-1-(4-phenoxybenzyl)-1H-imidazole-4-carboxamide] here?
**A.** 9 nM

**Q.** How did the IC50 turn out when Cc1cc(N)nc(C)c1CNC(=O)c1cn(Cc2ccc(-n3cccn3)cc2)cn1 [Example 24, 1-(4-(1H-pyrazol-1-yl)benzyl)-N-((6-amino-2,4-dimethylpyridin-3-yl)methyl)-1H-imidazole-4-carboxamide] was run?
**A.** 238 nM

**Q.** For Cc1cc(N)nc(C)c1CNC(=O)c1cnn(Cc2csc(Nc3ccccc3)n2)c1 [Example 25, N-((6-amino-2,4-dimethylpyridin-3-yl)methyl)-1-((2-(phenylamino)thiazol-4-yl)methyl)-1H-pyrazole-4-carboxamide], which IC50 is on record?
**A.** 109 nM

**Q.** How did the IC50 turn out when Cc1cc(N)nc(C)c1CNC(=O)c1cnn(Cc2sc(-c3ccccc3)nc2C)c1 [Example 26, N-((6-amino-2,4-dimethylpyridin-3-yl)methyl)-1-((4-methyl-2-phenylthiazol-5-yl)methyl)-1H-pyrazole-4-carboxamide] was run?
**A.** 19 nM

**Q.** Which IC50 does the source give for Cc1cc(N)nc(C)c1CNC(=O)c1cnn(Cc2csc(Cc3ccccc3)n2)c1 [Example 27, N-((6-amino-2,4-dimethylpyridin-3-yl)methyl)-1-((2-benzylthiazol-4-yl)methyl)-1H-pyrazole-4-carboxamide] here?
**A.** 21 nM

**Q.** Which IC50 does the source give for Cc1cc(N)nc(C)c1CNC(=O)c1cnn(Cc2csc(C(C)(C)C)n2)c1 [Example 28, N-((6-amino-2,4-dimethylpyridin-3-yl)methyl)-1-((2-tert-butylthiazol-4-yl)methyl)-1H-pyrazole-4-carboxamide] here?
**A.** 343 nM

**Q.** Which IC50 does the source give for Cc1cc(N)nc(C)c1CNC(=O)c1cnn(Cc2csc(CC(=O)N(C)C)n2)c1 [Example 29, N-((6-amino-2,4-dimethylpyridin-3-yl)methyl)-1-((2-(2-(dimethylamino)-2-oxoethyl)thiazol-4-yl)methyl]-1H-pyrazole-4-carboxamide] here?
**A.** 248 nM

**Q.** With Cc1cc(N)nc(C)c1CNC(=O)c1cnn(Cc2cn3ccccc3n2)c1 [Example 30, N-((6-amino-2,4-dimethylpyridin-3-yl)methyl)-1-(imidazo[1,2-a]pyridin-2-ylmethyl)-1H-pyrazole-4-carboxamide] as the compound, how does the IC50 read?
**A.** 204 nM

**Q.** For Cc1cc(N)nc(C)c1CNC(=O)c1cnn(Cc2cc3ccccc3o2)c1 [Example 31], which IC50 is on record?
**A.** 143 nM

**Q.** How did the IC50 turn out when Cc1cc(N)nc(C)c1CNC(=O)c1cnn(Cc2coc(-c3ccccc3)n2)c1 [Example 32, N-((6-amino-2,4-dimethylpyridin-3-yl)methyl)-1-((2-phenyloxazol-4-yl)methyl)-1H-pyrazole-4-carboxamide] was run?
**A.** 41 nM

**Q.** Which IC50 does the source give for Cc1cc(N)nc(C)c1CNC(=O)c1cnn(Cc2ccc3[nH]cnc3c2)c1 [Example 33, 1-((1H-benzo[d]imidazol-5-yl)methyl)-N-((6-amino-2,4-dimethylpyridin-3-yl)methyl)-1H-pyrazole-4-carboxamide] here?
**A.** 262 nM

**Q.** How did the IC50 turn out when Cc1cc(N)nc(C)c1CNC(=O)c1cnn(Cc2ccc3ccn(C)c3c2)c1 [Example 34, N-((6-amino-2,4-dimethylpyridin-3-yl)methyl)-1-((1-methyl-1H-indol-6-yl)methyl)-1H-pyrazole-4-carboxamide] was run?
**A.** 46 nM

**Q.** Which IC50 does the source give for Cc1cc(N)nc(C)c1CNC(=O)c1cnn(Cc2ncoc2-c2ccccc2)c1 [Example 35, N-((6-amino-2,4-dimethylpyridin-3-yl)methyl)-1-((5-phenyloxazol-4-yl)methyl)-1H-pyrazole-4-carboxamide] here?
**A.** 3900 nM

**Q.** For Cc1cc(N)nc(C)c1CNC(=O)c1cnn(S(=O)(=O)c2cccc(C#N)c2)c1 [Example 37, N-((6-amino-2,4-dimethylpyridin-3-yl)methyl)-1-(3-cyanophenylsulfonyl)-1H-pyrazole-4-carboxamide], which IC50 is on record?
**A.** 5300 nM

**Q.** How did the IC50 turn out when Cc1cc(N)nc(C)c1CNC(=O)c1cn(Cc2ccc(Oc3ccccc3)cc2)nn1 [Example 38, N-((6-amino-2,4-dimethylpyridin-3-yl)methyl)-1-(4-phenoxybenzyl)-1H-1,2,3-triazole-4-carboxamide] was run?
**A.** 19 nM

**Q.** Which IC50 does the source give for Cc1cc(N)nc(C)c1CNC(=O)c1cn(Cc2cccc3ccccc23)nn1 [Example 39, N-((6-amino-2,4-dimethylpyridin-3-yl)methyl)-1-(naphthalen-1-ylmethyl)-1H-1,2,3-triazole-4-carboxamide] here?
**A.** 634 nM

**Q.** Cc1cc(N)nc(C)c1CNC(=O)c1cn(Cc2ccc3ccccc3c2)nn1 [Example 40, N-((6-amino-2,4-dimethylpyridin-3-yl)methyl)-1-(naphthalen-2-ylmethyl)-1H-1,2,3-triazole-4-carboxamide] was tested. Which IC50 did it give?
**A.** 9 nM

**Q.** Which IC50 does the source give for Cc1cc(N)nc(C)c1CNC(=O)c1cn(Cc2ccc(-n3cccn3)cc2)nn1 [Example 41, 1-(4-(1H-pyrazol-1-yl)benzyl)-N-((6-amino-2,4-dimethylpyridin-3-yl)methyl]-1H-1,2,3-triazole-4-carboxamide] here?
**A.** 108 nM

**Q.** Which IC50 does the source give for Cc1cc(N)nc(C)c1CNC(=O)c1cn(Cc2cccc(-n3cccn3)c2)nn1 [Example 42, 1-(3-(1H-pyrazol-1-yl)benzyl)-N-((6-amino-2,4-dimethylpyridin-3-yl)methyl)-1H-1,2,3-triazole-4-carboxamide] here?
**A.** 145 nM

**Q.** With Cc1cc(N)nc(C)c1CNC(=O)c1cn(Cc2cccc(N3CCCC3)c2)nn1 [Example 43, N-((6-amino-2,4-dimethylpyridin-3-yl)methyl)-1-(3-(pyrolidin-1-yl)benzyl)-1H-1,2,3-triazole-4-carboxamide] as the compound, how does the IC50 read?
**A.** 113 nM

**Q.** Which IC50 does the source give for Cc1cc(N)nc(C)c1CNC(=O)c1cnn(Cc2cc3ccccc3o2)n1 [Example 44, N-((6-amino-2,4-dimethylpyridin-3-yl)methyl)-2-(benzofuran-2-ylmethyl)-2H-1,2,3-triazole-4-carboxamide] here?
**A.** 215 nM

**Q.** How did the IC50 turn out when Cc1cc(N)nc(C)c1CNC(=O)c1cn(Cc2ccc(Cn3ccnc3)cc2)nn1 [Example 45, 1-(4-((1H-imidazol-1-yl)methyl)benzyl)-N-((6-amino-2,4-dimethylpyridin-3-yl)methyl)-1H-1,2,3-triazole-4-carboxamide] was run?
**A.** 45 nM

**Q.** How did the IC50 turn out when Cc1cc(N)nc(C)c1CNC(=O)c1cn(Cc2cccc(Cn3ccnc3)c2)nn1 [Example 46, 1-(3-((1H-imidazol-1-yl)methyl)benzyl)-N-((6-amino-2,4-dimethylpyridin-3-yl)methyl)-1H-1,2,3-triazole-4-carboxamide] was run?
**A.** 1100 nM

**Q.** With Cc1cc(N)nc(C)c1CNC(=O)c1csc(Cc2ccccc2)n1 [Example 47, N-((6-amino-2,4-dimethylpyridin-3-yl)methyl)-2-benzylthiazole-4-carboxamide] as the compound, how does the IC50 read?
**A.** 3200 nM

**Q.** Cc1cc(N)nc(C)c1CNC(=O)c1ccc(Oc2ccccc2)o1 [Example 48, N-((6-amino-2,4-dimethylpyridin-3-yl)methyl)-5-phenoxyfuran-2-carboxamide] was tested. Which IC50 did it give?
**A.** 35500 nM
